Measured values taken from article PMC5513037, “Examining the influence of specificity ligands and ATP-competitive ligands on the overall effectiveness of bivalent kinase inhibitors” (Proteome Science, 2017).
pIC50: −log10 of the molar value.

What was measured:
Experiment in all cases: KAM-matrix competition in K562 lysate;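 for 0.001 uM KAM: median log10 fold change of treatment over DMSO control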;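 for 0.01 uM KAM: median log10 fold change of treatment over DMSO control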;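 for 0.1 uM KAM: median log10 fold change of treatment over DMSO control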;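 for 1 uM KAM: median log10 fold change of treatment over DMSO control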;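 for 10 uM KAM: median log10 fold change of treatment over DMSO control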
Type in all cases: binding
PHKG2 = biological target: T1, PHKG2 (Homo sapiens, UniProt P15735)
T1 construct: endogenous in cells; host or cells: K562 cell lysate
T1 sequence (P15735 1-406): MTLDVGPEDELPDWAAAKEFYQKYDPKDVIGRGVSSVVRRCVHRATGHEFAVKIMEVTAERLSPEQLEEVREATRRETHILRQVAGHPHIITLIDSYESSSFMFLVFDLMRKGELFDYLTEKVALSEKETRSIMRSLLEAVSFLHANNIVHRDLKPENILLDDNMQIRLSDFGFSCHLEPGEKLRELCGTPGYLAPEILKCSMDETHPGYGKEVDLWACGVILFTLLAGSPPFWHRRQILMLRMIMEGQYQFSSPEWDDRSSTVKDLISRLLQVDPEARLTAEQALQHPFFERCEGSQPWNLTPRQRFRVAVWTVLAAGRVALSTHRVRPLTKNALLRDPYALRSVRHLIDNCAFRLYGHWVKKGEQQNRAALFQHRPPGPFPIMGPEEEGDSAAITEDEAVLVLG
Protocol: (§1) Supplement 12953_2017_125_MOESM1_ESM.zip/MS_Supp Info.xlsx, sheet "KAM" | column: 10 uM KAM; 1 uM KAM; 0.1 uM KAM; 0.01 uM KAM; 0.001 uM KAM; RB50

MAPK6 = biological target: T2, MAPK6 (Homo sapiens, UniProt Q16659)
T2 construct: endogenous in cells; host or cells: K562
Protocol: as §1

MAPK14 = biological target: T3, MAPK14 (Homo sapiens, UniProt Q16539);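 for 0.001 uM KAM: median log10 fold change of treatment over DMSO control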;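 for 0.01 uM KAM: median log10 fold change of treatment over DMSO control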;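 for 0.1 uM KAM: median log10 fold change of treatment over DMSO control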;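 for 1 uM KAM: median log10 fold change of treatment over DMSO control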;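 for 10 uM KAM: median log10 fold change of treatment over DMSO control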
T3 construct: endogenous in cells; host or cells: K562
Protocol: as §1

CSK = biological target: T4, CSK (Homo sapiens, UniProt P41240);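 for 0.001 uM KAM: median log10 fold change of treatment over DMSO control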;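 for 0.01 uM KAM: median log10 fold change of treatment over DMSO control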;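 for 0.1 uM KAM: median log10 fold change of treatment over DMSO control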;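 for 1 uM KAM: median log10 fold change of treatment over DMSO control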;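 for 10 uM KAM: median log10 fold change of treatment over DMSO control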
T4 construct: endogenous in cells; host or cells: K562
Protocol: as §1

ADCK1 = biological target: T5, ADCK1 (Homo sapiens, UniProt Q86TW2);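 for 0.001 uM KAM: median log10 fold change of treatment over DMSO control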;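 for 0.01 uM KAM: median log10 fold change of treatment over DMSO control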;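 for 0.1 uM KAM: median log10 fold change of treatment over DMSO control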;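 for 1 uM KAM: median log10 fold change of treatment over DMSO control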;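 for 10 uM KAM: median log10 fold change of treatment over DMSO control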
T5 construct: endogenous in cells; host or cells: K562
T5 sequence (Q86TW2 1-530): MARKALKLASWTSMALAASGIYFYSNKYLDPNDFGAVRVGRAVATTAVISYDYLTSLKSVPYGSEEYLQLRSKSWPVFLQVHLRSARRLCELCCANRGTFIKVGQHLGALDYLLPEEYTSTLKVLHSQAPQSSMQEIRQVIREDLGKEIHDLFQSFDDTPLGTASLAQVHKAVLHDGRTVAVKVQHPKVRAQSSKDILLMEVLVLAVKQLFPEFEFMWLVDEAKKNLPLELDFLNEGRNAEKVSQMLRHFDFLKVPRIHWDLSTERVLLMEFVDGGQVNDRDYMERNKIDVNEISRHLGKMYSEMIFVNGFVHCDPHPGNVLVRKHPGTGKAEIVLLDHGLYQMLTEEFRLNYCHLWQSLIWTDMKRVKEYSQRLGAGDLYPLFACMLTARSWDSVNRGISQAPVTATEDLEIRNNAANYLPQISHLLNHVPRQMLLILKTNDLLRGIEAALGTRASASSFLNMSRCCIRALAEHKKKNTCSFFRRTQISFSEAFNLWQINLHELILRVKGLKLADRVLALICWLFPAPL
Protocol: as §1

ARAF = biological target: T6, ARAF (Homo sapiens, UniProt P10398);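 for 0.001 uM KAM: median log10 fold change of treatment over DMSO control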;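 for 0.01 uM KAM: median log10 fold change of treatment over DMSO control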;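 for 0.1 uM KAM: median log10 fold change of treatment over DMSO control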;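 for 1 uM KAM: median log10 fold change of treatment over DMSO control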;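 for 10 uM KAM: median log10 fold change of treatment over DMSO control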
T6 construct: endogenous in cells; host or cells: K562
T6 sequence (P10398 1-606): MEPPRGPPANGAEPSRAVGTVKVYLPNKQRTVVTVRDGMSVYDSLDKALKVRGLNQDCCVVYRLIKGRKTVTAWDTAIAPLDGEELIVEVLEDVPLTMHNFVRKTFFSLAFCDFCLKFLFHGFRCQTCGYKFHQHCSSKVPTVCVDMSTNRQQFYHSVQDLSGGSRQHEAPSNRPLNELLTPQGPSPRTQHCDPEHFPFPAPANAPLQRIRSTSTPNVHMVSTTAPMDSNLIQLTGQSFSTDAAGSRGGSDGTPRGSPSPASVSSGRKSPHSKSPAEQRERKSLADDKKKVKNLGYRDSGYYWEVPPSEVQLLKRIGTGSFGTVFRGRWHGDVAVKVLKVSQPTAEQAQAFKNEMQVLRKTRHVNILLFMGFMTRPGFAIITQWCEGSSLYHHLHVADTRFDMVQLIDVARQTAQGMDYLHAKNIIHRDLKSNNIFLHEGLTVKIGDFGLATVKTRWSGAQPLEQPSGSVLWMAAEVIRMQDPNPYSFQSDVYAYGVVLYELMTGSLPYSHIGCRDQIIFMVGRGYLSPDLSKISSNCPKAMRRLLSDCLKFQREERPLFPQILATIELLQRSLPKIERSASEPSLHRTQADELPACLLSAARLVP
Protocol: as §1

[1] = read-out: RB50 (the source's name)
[2] = KAM 0.001-10 uM, read-out: RB50 (the source's name)

T2 sequence (Q16659 whole entry): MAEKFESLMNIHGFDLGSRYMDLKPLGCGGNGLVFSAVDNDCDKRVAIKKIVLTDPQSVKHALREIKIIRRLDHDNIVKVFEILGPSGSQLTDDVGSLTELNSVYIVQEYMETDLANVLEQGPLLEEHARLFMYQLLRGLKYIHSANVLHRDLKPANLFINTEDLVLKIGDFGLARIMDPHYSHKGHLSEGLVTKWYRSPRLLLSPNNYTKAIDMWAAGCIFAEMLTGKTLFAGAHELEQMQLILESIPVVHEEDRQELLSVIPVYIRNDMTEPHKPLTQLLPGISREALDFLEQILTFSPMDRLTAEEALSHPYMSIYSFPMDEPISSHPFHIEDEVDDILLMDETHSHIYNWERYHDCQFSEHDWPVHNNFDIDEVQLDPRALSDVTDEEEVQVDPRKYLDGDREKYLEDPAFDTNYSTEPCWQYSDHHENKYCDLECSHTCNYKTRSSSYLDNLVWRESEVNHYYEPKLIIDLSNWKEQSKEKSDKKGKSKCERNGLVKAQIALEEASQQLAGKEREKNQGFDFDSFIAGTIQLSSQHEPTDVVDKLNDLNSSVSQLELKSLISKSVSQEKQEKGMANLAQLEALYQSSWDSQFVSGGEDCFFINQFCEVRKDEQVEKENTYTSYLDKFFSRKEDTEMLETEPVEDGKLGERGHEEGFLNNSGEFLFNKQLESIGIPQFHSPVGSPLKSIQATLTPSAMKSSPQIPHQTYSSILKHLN
T4 sequence (P41240 whole entry): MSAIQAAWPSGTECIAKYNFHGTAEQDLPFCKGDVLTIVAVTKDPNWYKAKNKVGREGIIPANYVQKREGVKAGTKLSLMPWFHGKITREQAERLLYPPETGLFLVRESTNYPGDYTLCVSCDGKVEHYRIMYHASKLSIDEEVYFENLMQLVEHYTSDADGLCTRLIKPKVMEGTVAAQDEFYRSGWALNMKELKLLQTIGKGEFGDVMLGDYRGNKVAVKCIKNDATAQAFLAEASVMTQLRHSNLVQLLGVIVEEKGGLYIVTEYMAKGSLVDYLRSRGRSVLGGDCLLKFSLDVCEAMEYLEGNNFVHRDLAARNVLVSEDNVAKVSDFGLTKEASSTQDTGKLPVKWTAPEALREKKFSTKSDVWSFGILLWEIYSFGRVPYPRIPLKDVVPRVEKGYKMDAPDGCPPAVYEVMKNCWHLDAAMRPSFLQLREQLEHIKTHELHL
T3 sequence (Q16539 whole entry): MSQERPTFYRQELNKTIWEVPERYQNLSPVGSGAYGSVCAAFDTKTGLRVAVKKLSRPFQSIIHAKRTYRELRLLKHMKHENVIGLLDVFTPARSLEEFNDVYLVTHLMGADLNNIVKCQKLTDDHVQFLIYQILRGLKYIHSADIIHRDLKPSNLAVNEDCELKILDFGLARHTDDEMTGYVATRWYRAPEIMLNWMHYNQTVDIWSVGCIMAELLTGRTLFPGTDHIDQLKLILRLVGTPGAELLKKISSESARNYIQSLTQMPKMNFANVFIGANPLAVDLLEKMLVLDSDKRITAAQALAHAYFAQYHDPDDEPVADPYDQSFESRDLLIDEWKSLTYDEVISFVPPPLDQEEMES

Question: With `N#CCc1ccc(Nc2nc(NCCCN)cc(Nc3cc(C4CC4)[nH]n3)n2)cc1` [KAM] as the molecule, how does the “median Log10 fold change” value (PHKG2; 0.001 uM KAM) read?
Answer: 0.003099

Question: What about the “median Log10 fold change” value (PHKG2; 0.01 uM KAM) of the same molecule?
Answer: -0.03027

Question: And the “median Log10 fold change” value (PHKG2; 0.1 uM KAM)?
Answer: -0.2223

Question: What about the “median Log10 fold change” value (PHKG2; 1 uM KAM) of the same molecule?
Answer: -0.4221

Question: What about the “median Log10 fold change” value (PHKG2; 10 uM KAM) of the same molecule?
Answer: -0.5566

Question: What about the pIC50 (PHKG2; [1]) of the same molecule?
Answer: 6.47

Question: And the “median Log10 fold change” value (MAPK6; 0.001 uM KAM)?
Answer: 0.01888

Question: And the “median Log10 fold change” value (MAPK6; 0.01 uM KAM)?
Answer: 0.003428

Question: What about the “median Log10 fold change” value (MAPK6; 0.1 uM KAM) of the same molecule?
Answer: -0.1658

Question: What about the “median Log10 fold change” value (MAPK6; 1 uM KAM) of the same molecule?
Answer: -0.3554

Question: And the “median Log10 fold change” value (MAPK6; 10 uM KAM)?
Answer: -0.4572

Question: What about the pIC50 (MAPK6; [1]) of the same molecule?
Answer: 6.12

Question: What about the pIC50 (MAPK14; [2]) of the same molecule?
Answer: < 5.00

Question: What about the “0.001 uM KAM” value (MAPK14; relative to 0 uM KAM = 0) of the same molecule?
Answer: -0.03046

Question: And the “0.01 uM KAM” value (MAPK14; relative to 0 uM KAM = 0)?
Answer: 0.03223

Question: And the “0.1 uM KAM” value (MAPK14; relative to 0 uM KAM = 0)?
Answer: 0.1026

Question: And the “1 uM KAM” value (MAPK14; relative to 0 uM KAM = 0)?
Answer: 0.08115

Question: What about the “10 uM KAM” value (MAPK14; relative to 0 uM KAM = 0) of the same molecule?
Answer: 0.173

Question: What about the pIC50 (CSK; [2]) of the same molecule?
Answer: < 5.00

Question: What about the “0.001 uM KAM” value (CSK; relative to 0 uM KAM = 0) of the same molecule?
Answer: 0.01067

Question: What about the “0.01 uM KAM” value (CSK; relative to 0 uM KAM = 0) of the same molecule?
Answer: -0.02135

Question: What about the “0.1 uM KAM” value (CSK; relative to 0 uM KAM = 0) of the same molecule?
Answer: 0.028

Question: What about the “1 uM KAM” value (CSK; relative to 0 uM KAM = 0) of the same molecule?
Answer: -0.04258

Question: What about the “10 uM KAM” value (CSK; relative to 0 uM KAM = 0) of the same molecule?
Answer: -0.03639

Question: And the pIC50 (ADCK1; [2])?
Answer: < 5.00

Question: And the “0.001 uM KAM” value (ADCK1; relative to 0 uM KAM = 0)?
Answer: -0.001358

Question: And the “0.01 uM KAM” value (ADCK1; relative to 0 uM KAM = 0)?
Answer: -0.0336

Question: And the “0.1 uM KAM” value (ADCK1; relative to 0 uM KAM = 0)?
Answer: -0.06203

Question: And the “1 uM KAM” value (ADCK1; relative to 0 uM KAM = 0)?
Answer: -0.1949

Question: And the “10 uM KAM” value (ADCK1; relative to 0 uM KAM = 0)?
Answer: -0.2595

Question: And the pIC50 (ARAF; [2])?
Answer: < 5.00

Question: And the “0.001 uM KAM” value (ARAF; relative to 0 uM KAM = 0)?
Answer: -0.04442

Question: What about the “0.01 uM KAM” value (ARAF; relative to 0 uM KAM = 0) of the same molecule?
Answer: -0.008723

Question: And the “0.1 uM KAM” value (ARAF; relative to 0 uM KAM = 0)?
Answer: -0.09412

Question: And the “1 uM KAM” value (ARAF; relative to 0 uM KAM = 0)?
Answer: -0.1283

Question: What about the “10 uM KAM” value (ARAF; relative to 0 uM KAM = 0) of the same molecule?
Answer: -0.1374
